What all share (assay): NCI anticancer screen, dose series, 48 h
Assay [1] concerns SK-OV-3 ovarian.
The subject of assay [2] is UACC-257 melanoma.
For assay [3], the system named is OVCAR-8 ovarian.
Assay [4] deals with SF-295 CNS.
The subject of assay [5] is SN12C renal.
The test system of assay [6] is M14 melanoma.
Assay [7] relates to NCI-H522 lung.
For assay [8], the system named is RPMI-8226 leukemia.
For assay [9], the system named is SK-MEL-2 melanoma.
Assay [10] has as its system NCI-H23 lung.

Structures are written as SMILES.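 Test compounds were applied to cells in 96-well plates for 48 hours at 5 doses. At the GI50, growth is halved. TGI: total growth inhibition.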

On to `O=C1C=C(OCC=C(Cl)Cl)C(=O)c2ccccc21`, for which the GI50 was over 100 µM in assay [1]; 2.15 µM in assay [2]; 3.29 µM in assay [3]; 12.7 µM in assay [4]; 2.61 µM in [5]; 3.73 µM in [6]. Also, the GI50 in assay [7] was 0.888 µM; in [8] it was 0.955 µM; in assay [9], 2.34 µM; in assay [10] it was 3.63 µM. Further, the TGI in assay [1] was over 100 µM; in [2], 11 µM; in assay [3], 15.8 µM; in assay [4] it was over 65.8 µM; in [5], 8.27 µM; in assay [6], 30.2 µM. Moreover, the TGI in assay [7] is 6.24 µM; in [8], over 20.8 µM; in [10], over 85 µM.
As to `COC(=O)C(=O)C(C(=O)C(=O)Nc1nc(=S)[nH][nH]1)c1nc2ccc([N+](=O)[O-])cc2[nH]c1=O` (stereo not given), the TGI in assay [1], in assay [2], in assay [3], in assay [4], in [5] and in assay [6] was over 100 µM throughout. In addition, the TGI in assay [7], in [8], in [9] and in [10] was over 100 µM each time.
Regarding `Cc1ccc(NC(=O)CC2C(=O)Nc3ccccc3S2(=O)=O)cc1C` (stereo not given), the TGI in [2], in assay [3], in [4], in assay [5], in assay [6] and in [7] was over 100 µM throughout. Also, the TGI in assay [8], in assay [9] and in [10] was over 100 µM throughout.
As to `CN1CCN(Cc2ccc(NC(=O)c3[nH]ncc3Nc3cc(OC4CCCC4)ncn3)cc2)CC1`, the GI50 in assay [1] is 1.28 µM; in assay [2] it was 3.42 µM; in [3], 4.95 µM; in [4], 2.93 µM; in [5], 3.37 µM; in assay [6], 1.35 µM. Further, the GI50 was 2.15 µM in [7], 2.94 µM in assay [8], 3.75 µM in assay [9] and 3.07 µM in [10]. Besides, the TGI in [1] was 4.36 µM; in assay [2] it was 9.6 µM; in assay [3] it was 26.9 µM; in assay [4], 12.5 µM; in assay [5], 13.8 µM; in assay [6] it was 3.62 µM. For the same compound, the TGI in [7] is 7.91 µM; in [8], 6.71 µM; in assay [9] it was 15.3 µM; in [10] it was 14.4 µM.
`COc1ccc(OC)c(/C=C/C(=O)c2ccc3cc(OC)ccc3c2)c1`: the GI50 in assay [1] was 1.04 µM; in assay [2], 7.05 µM; in assay [4], 1.5 µM; in assay [6], over 23.4 µM; in [8], 4.53 µM; in [9] it was over 14.9 µM. For the same compound, the TGI in assay [1] is 2.37 µM; in [2], over 27.8 µM; in [3], over 11.9 µM; in assay [4], 12.2 µM; in [5] it was over 13.1 µM; in [6], over 50 µM. The TGI is over 14 µM in [7], over 37.8 µM in assay [8], over 50 µM in [9] and over 14.3 µM in [10].
For `O=C(O)CSc1nnc2c3ccccc3c3ccccc3c2n1`, the TGI in assay [1], in assay [2], in assay [3], in [4], in [5] and in assay [6] was over 100 µM in each case. The TGI is over 100 µM in assay [7], 99.4 µM in assay [8], over 100 µM in assay [9] and over 100 µM in assay [10].
Consider `CCCNC(=O)Nc1ccc2c(c1)Cc1cc(N(CCCl)CCCl)ccc1-2`, for which the TGI was over 100 µM in assay [2]; over 100 µM in [3]; 44.2 µM in [4]; over 100 µM in assay [5]; over 100 µM in [6]; 41 µM in assay [7]. The TGI in [8] is over 100 µM; in [9], 62.9 µM; in [10], over 100 µM.
Consider `CN(C)c1ccc(/C=N/NC(=O)c2cnc3ccccc3c2)cc1`, for which the TGI in [1], in [2], in assay [3], in assay [4], in assay [5] and in assay [6] was over 100 µM each time. Further, the TGI in assay [7], in assay [8], in assay [9] and in assay [10] was over 100 µM each time.
As for `COc1cc[nH]c1/C=C1\C(=O)Nc2ccc([N+](=O)[O-])c(N3CC[C@@H](O)C3)c21`, the GI50 in [1] was 0.631 µM; in assay [2] it was 0.474 µM; in assay [3] it was 0.278 µM; in [4], 0.128 µM; in assay [5], 0.211 µM; in assay [6], 0.399 µM. Also, the GI50 is 0.393 µM in [7], 0.296 µM in assay [8], 0.229 µM in assay [9] and 0.484 µM in [10]. In addition, the TGI amounted to 8.16 µM in assay [1]; 1.64 µM in [2]; 3.46 µM in assay [3]; 3.4 µM in assay [4]; 4 µM in assay [5]; 1.13 µM in assay [6]. In addition, the TGI in assay [7] came to 1.23 µM; in [8] it was 1.14 µM; in assay [9], 0.688 µM; in [10], 1.89 µM.
Regarding `O=C(N/N=C/c1cccc(O)c1)c1ccc(C(F)(F)F)nc1Nc1cccc(C(F)(F)F)c1`, the GI50 in assay [1] was 1.77 µM; in assay [2] it was 2.36 µM; in assay [3], 2.12 µM; in assay [5], 1.79 µM; in assay [6], 1.89 µM; in [7], 1.67 µM. The figures for the GI50 in assay [8], in assay [9] and in [10] were 1.32 µM, 1.76 µM and 1.62 µM, respectively. Moreover, the TGI in assay [1] turned out to be 6.02 µM; in assay [2] it was 8.44 µM; in [3], 11.3 µM; in assay [5], 6.34 µM; in assay [6], 5.02 µM; in [7], 6.72 µM. The TGI in assay [8] is 3.99 µM; in assay [9], 6.07 µM; in assay [10], 5.07 µM.
`COc1ccc(S(=O)(=O)N/N=C/CN2C(=O)c3ccccc3C2=O)cc1`: the TGI in assay [2], in [3], in [4], in [5], in assay [6] and in assay [7] was over 100 µM throughout. The TGI in assay [8], in [9] and in assay [10] was over 100 µM in each case.
`ClCCCN1CCCCC1CCl` (stereo not given): the TGI in assay [1], in [3], in assay [4], in assay [5], in assay [6] and in assay [7] was over 100 µM throughout. Further, the TGI in assay [8], in assay [9] and in assay [10] was over 100 µM each time.
Turning to `COc1ccc(CNC(=O)c2c(C)n([O-])c3cc(F)c(F)cc3[n+]2=O)cc1`, the GI50 in [1] was 14.8 µM; in [2], 10.4 µM; in [3], 3.72 µM; in assay [5], 14.2 µM; in assay [6] it was 12 µM; in [7] it was 11.5 µM. Also, the GI50 in assay [8] is 6.4 µM; in [9] it was 15.4 µM; in assay [10] it was 2.38 µM. For the same compound, the TGI in [1] turned out to be 27.9 µM; in assay [2], 23.6 µM; in assay [3], 15.9 µM; in assay [5], 27.2 µM; in [6], 24.4 µM; in assay [7] it was 27 µM. Further, the TGI worked out at 30.9 µM in [8], 29.5 µM in assay [9] and 10.6 µM in [10].
As for `COC(=O)C1=C(O)C(C(=O)OC)[C@@]2(O)[C@@H](C(=O)OC)C(c3ccccc3Cl)C[C@@H]1[C@@H]2C(=O)OC` (stereo not given in full), the GI50 was 23.6 µM in assay [1]; 15.9 µM in [2]; 5.81 µM in assay [3]; 7.05 µM in [4]; 3.96 µM in assay [5]; 3.16 µM in assay [7]. In addition, the values for the GI50 in assay [8], in assay [9] and in assay [10] were 1.88 µM, 3.62 µM and 9.79 µM, respectively. For the same compound, the TGI in assay [1] stood at 63.4 µM; in [2], 38.8 µM; in [3], 34 µM; in assay [4] it was 23.8 µM; in [5] it was 19.8 µM; in assay [7] it was 12.8 µM. Further, the TGI in [8] came out at 6.2 µM; in assay [9] it was 17.7 µM; in [10] it was 23.3 µM.
